For data set [1], the system named is leukemias and myelodysplastic syndromes. Also noted: method as in PMID 23671007. Particulars: specific indications of leukemias and myelodysplastic syndromes; cited from earlier work.
Data set [2] in a line: Phase 1 dose escalation: adverse events (CTCAE v4.0), DLT, MTD/RP2D. It is filed as in vivo, human. As to conditions: orally once daily with 160 mg FdCyd on days 1–6 and 8–13 of each 21-day cycle (dose level 8).
Procedure: FdCyd and THU were supplied by the NCI Division of Cancer Treatment and Diagnosis. Patients were administered both drugs orally in 21-day cycles, and dose escalation proceeded according to a traditional 3 + 3 design as per the dose escalation schema shown in Supplementary Table S1. […] Patients maintained a study diary to note any side effects or concurrent medications. The NCI Common Terminology Criteria for Adverse Events version 4.0 was used to grade adverse events. Tumor response was assessed by radiography at baseline and every 2 cycles thereafter and evaluated per RECIST version 1.1 [11]. Following determination of the maximum tolerated dose (MTD)/recommended phase 2 dose (RP2D), an additional 13 patients were enrolled on a RP2D expansion cohort for assessments of pharmacodynamic biomarkers in baseline and on-treatment tumor biopsies.
DLTs were defined as toxicities that were at least possibly related to FdCyd or THU within the first cycle of treatment and met one of the following criteria: grade ≥ 3 non-hematological toxicity (including grade 3 nausea, vomiting, or diarrhea only if refractory to standard supportive care; grade 3 electrolyte toxicities only if unable to be corrected to ≤ grade 1 within 24 h; and tumor pain only if refractory to analgesics); grade 4 thrombocytopenia; or grade 4 neutropenia lasting ≥ 5 days or febrile neutropenia. […]
The conditions of data set [3]: cited from earlier work.
A short description of data set [4]: Plasma pharmacokinetics by LC-MS/MS. It is filed as in vivo, human. Particulars: for THU AUC0-6/Dose / THU Cl/F / THU Cmax/Dose / Tmax / Vd/F / half-life / AUC(0-inf) / Cmax / AUC(0-t) / concentration at 24 h / concentration at 48 h: geom. mean (geom. SD); for Tmax: read-out: THU Tmax; for Vd/F: read-out: THU Vz/F; for half-life: read-out: THU t½ (converted); for AUC(0-inf): read-out: THU AUC0-inf; for Cmax: read-out: THU Cmax; for AUC(0-t): read-out: THU AUC0-6; for concentration at 24 h: read-out: THU Cmin24h; for concentration at 48 h: read-out: THU Cmin48h. As to the method: (§1) Blood specimens for PK analysis were collected on Cycle 1 Day 1 (C1D1) prior to THU administration and then at 15, 30, and 45 min and 1, 2, 3, 4, 5, and 6 h after THU administration, as well as on C1D2 and C1D3 prior to and 2 h after THU administration. Urine specimens for PK analysis were collected on C1D1 prior to treatment and then at every void from 0 to 24 h after THU administration. All specimens for PK analysis were processed and analyzed by LC-MS/MS as described previously, and Phoenix WinNonlin software was used for data analysis.

A short description of data set [5]: Urinary excretion by LC-MS/MS. As to conditions: geom. mean (geom. SD). The data set is classed as in vivo, human. How it is done:
as §1

On the set-up of data set [6]: method as in PMID 21576646. As to conditions: oral administration, phase 1 study; cited from earlier work.
[7] abbreviates: DL1-DL9: THU 3000 mg oral once daily (n=44).
Setting [8] is: DL10-DL11: THU 6000 mg oral twice daily (n=11).
[9] abbreviates: human, plasma, oral, Total, all dose levels (n=55).
The mark [10] stands for this setting: human, plasma, po, 3000 mg, DL1-DL9: THU 3000 mg oral once daily (n=44).
The mark [11] stands for this setting: human, plasma, po, 6000 mg, DL10-DL11: THU 6000 mg oral twice daily (n=11).
[12] abbreviates: human, plasma, DL1-DL9: THU 3000 mg oral once daily (n=44).
The mark [13] stands for this setting: human, plasma, DL10-DL11: THU 6000 mg oral twice daily (n=11).

For orientation: Tmax means the time from dosing to the highest level. What is called bioavailability is dose-corrected exposure relative to a reference, in per cent. Usually Cmax stands for the peak of the concentration-time curve.

Where “and” joins values, the source holds several entries; their conditions need not be identical. Equal values may be shown once. Read-outs that look alike come from different tables or passages of the source.

Regarding `Nc1ncn([C@H]2C[C@H](O)[C@@H](CO)O2)c(=O)n1` [decitabine, 5-aza-2’deoxycytidine], in data set [1], the Response rates was above 50%.

Turning to `O=C1NC(O)CCN1[C@@H]1O[C@H](CO)[C@@H](O)[C@H]1O` (stereo partly drawn) [THU, tetrahydrouridine], the “Maximum tolerated dose / RP2D, THU dose” value in data set [2] came out at 3000 mg. Moreover, the “THU bioavailability, previously established” value in data set [3] is 4.1%. The “THU clearance, previous values” in data set [3] (intravenous THU, ref previous clearance values) is 43 mL/min/m^2. Further, the “THU exposure in patients who experienced a DLT vs those who did not” value in data set [4] (AUC0−6 P = 0.007, Cmax P = 0.005, C24h P = 0.002, C48h P = 0.004) is given as “significantly higher THU exposures”. In addition, the “THU AUC0-6/Dose” value in data set [4] (setting [7]) is listed as 2.25 (1.63) µg/L•h / mg; in data set [4] (setting [8]), 1.79 (1.37) µg/L•h / mg; in data set [4] (Total, all dose levels (n=55)), 2.15 (1.60) µg/L•h / mg. Moreover, the “THU Cl/F” value in data set [4] (setting [7]) was 142 L/h and 142 (1.8) L/h; in data set [4] (setting [8]), 190 (1.6) L/h; in data set [4] (Total, all dose levels (n=55)), 147 (1.7) L/h. Further, the “THU Cmax/Dose” value in data set [4] (setting [7]) was 505 (1.7) µg/L / g; in data set [4] (setting [8]), 390 (1.4) µg/L / g; in data set [4] (Total, all dose levels (n=55)), 480 (1.6) µg/L / g. For the same compound, the “Increase in THU 24 and 48 h trough concentrations” value in data set [4] (THU 6000 mg twice daily vs 3000 mg once daily, expected 4-fold) is around 10 fold. Further, in data set [4] (comparison with ref 8), the “THU plasma concentrations for the oral RP2D compared with the intravenous RP2D of 350 mg/m^2 THU” value is 9–13 % lower. Moreover, the Tmax was around 3 h in data set [4] (setting [9]), 3 h in data set [4] (setting [10]) and 3.2 h in data set [4] (setting [11]). Further, the Vd/F came to 1830 L in data set [4] (setting [9]), 1810 L in data set [4] (setting [10]) and 2040 L in data set [4] (setting [11]). The half-life in data set [4] (setting [9]) is 8.7 h; in data set [4] (setting [10]) it was 8.8 h; in data set [4] (human, plasma, po, 6000 mg, DL10-DL11: THU 6000 mg oral twice daily, half-life determined for only 6 patients) it was 7.4 h. Moreover, the bioavailability in data set [4] (human, plasma, oral, from previous clearance (43 mL/min/m^2) vs current Cl/F (142 L/h), read-out: THU bioavailability in the current study) was around 3%. Further, the AUC(0-inf) in data set [4] (setting [10]) turned out to be 21100 ng·h/mL; in data set [4] (setting [11]), 31600 ng·h/mL. Besides, the values for the Cmax in data set [4] (setting [10]) and in data set [4] (setting [11]) were 1520 ng/mL and 2340 ng/mL, respectively. Also, the AUC(0-t) in data set [4] (setting [12]) is 6750 ng·h/mL; in data set [4] (setting [13]), 10800 ng·h/mL. Also, the concentration at 24 h in data set [4] (setting [12]) was found to be 260 ng/mL; in data set [4] (setting [13]), 2520 ng/mL. For the same compound, the concentration at 48 h in data set [4] (setting [12]) turned out to be 330 ng/mL; in data set [4] (setting [13]) it was 3170 ng/mL. Also, the “THU urinary excretion over 0-24 hours of day 1” value is reported as 2.1 (2.0) % dose in data set [5] (All FdCyd doses + THU 3000 mg, N=42); 1.2 (2.5) % dose in data set [5] (All FdCyd doses + THU 6000 mg, N=10); 2.9 (2.0) % dose in data set [5] (DL1: FdCyd 30 mg + THU 3000 mg, N=3); 2.8 (1.6) % dose in data set [5] (DL2: FdCyd 60 mg + THU 3000 mg, N=3); 2.1 (1.4) % dose in data set [5] (DL3: FdCyd 90 mg + THU 3000 mg, N=3); 1.1 (4.8) % dose in data set [5] (DL4: FdCyd 120 mg + THU 3000 mg, N=3). Also, the “THU urinary excretion over 0-24 hours of day 1” value in data set [5] (DL5-9: FdCyd 160 mg + THU 3000 mg, N=30) is listed as 2.1 (1.8) % dose; in data set [5] (DL10: FdCyd 60 mg + THU 6000 mg, N=7) it was 1.1 (2.9) % dose; in data set [5] (DL11: FdCyd 80 mg + THU 6000 mg, N=3), 1.6 (1.7) % dose; in data set [5] (Total, all dose levels, N=52) it was 1.9 (2.1) % dose.

Turning to `Nc1ncn([C@@H]2O[C@H](CO)[C@@H](O)[C@H]2O)c(=O)n1` [azacytidine], the Response rates in data set [1] is above 50%. The “Most common grade 3/4 toxicity and dose-limiting toxicity” value in data set [6] is “diarrhea”.

These data come from PMC12722308, “A phase 1 study of orally administered 5-fluoro-2’-deoxycytidine with tetrahydrouridine in patients with refractory solid tumors” (Cancer Chemotherapy and Pharmacology, 2025).
